# Laboratory results reported in BindingDB's records for doi:10.1016/j.bmc.2010.10.023 (Chugai Pharmaceutical, 2010).
# Experiment: Antagonist activity at AR in human bicalutamide-resistant LNCAP cells assessed as inhibition of cell proliferation after 6 days
row,Compound,IC50 [nM]
1,"CC1(C)C(=O)N(c2ccc(C#N)c(Cl)c2)C(=S)N1c1cccc(S(N)(=O)=O)c1 [3-[3-(3-Chloro-4-cyanophenyl)-5,5-dimethyl-4-oxo-2-thioxoimidazolidin-1-yl]benzenesulfonamide]",100
2,"CC1(C)C(=O)N(c2ccc(C#N)c(Cl)c2)C(=S)N1CCCS(N)(=O)=O [3-[3-(3-Chloro-4-cyanophenyl)-5,5-dimethyl-4-oxo-2-thioxoimidazolidin-1-yl]propane-1-sulfonamide]",10
3,"CC1(C)C(=O)N(c2ccc(C#N)c(C(F)(F)F)c2)C(=S)N1c1cccc(S(N)(=O)=O)c1 [3-[3-(4-Cyano-3-trifluoromethylphenyl)-5,5-dimethyl-4-oxo-2-thioxoimidazolidin-1-yl]benzenesulfonamide]",100
4,"CC1(C)C(=O)N(c2ccc(C#N)c(C(F)(F)F)c2)C(=S)N1c1ccccc1 [4-(3-Phenyl-4,4-dimethyl-5-oxo-2-thioxoimidazolidin-1-yl)-2-trifluoromethylbenzonitrile]",100
5,"CC1(C)C(=O)N(c2ccc(C#N)c(C(F)(F)F)c2)C(=S)N1c1ccnc(S(N)(=O)=O)c1 [4-[3-(4-Cyano-3-trifluoromethylphenyl)-5,5-dimethyl-4-oxo-2-thioxoimidazolidin-1-yl]pyridine-2-sulfonic acid amide]",80
6,"CC1(C)C(=O)N(c2ccc(C#N)c(Cl)c2)C(=S)N1c1cncc(S(N)(=O)=O)c1 [5-[3-(3-Chloro-4-cyanophenyl)-5,5-dimethyl-4-oxo-2-thioxoimidazolidin-1-yl]pyridine-3-sulfonic acid amide]",50
7,"CC1(C)C(=O)N(c2ccc(C#N)c(C(F)(F)F)c2)C(=S)N1c1cncc(S(N)(=O)=O)c1 [5-[3-(4-Cyano-3-trifluoromethylphenyl)-5,5-dimethyl-4-oxo-2-thioxoimidazolidin-1-yl]pyridine-3-sulfonic acid amide]",30
8,"CC1(C)C(=O)N(c2ccc(C#N)c(Cl)c2)C(=S)N1c1cccc(S(N)(=O)=O)n1 [6-[3-(3-Chloro-4-cyanophenyl)-5,5-dimethyl-4-oxo-2-thioxoimidazolidin-1-yl]pyridine-2-sulfonic acid amide]",100
9,"CC1(C)C(=O)N(c2ccc(C#N)c(C(F)(F)F)c2)C(=S)N1c1cccc(S(N)(=O)=O)n1 [6-[3-(4-Cyano-3-trifluoromethylphenyl)-5,5-dimethyl-4-oxo-2-thioxoimidazolidin-1-yl]pyridine-2-sulfonic acid amide]",100
